Where a name gives a salt, the structure may show the parent alone. A value given as a limit tells only on which side of the number the result lay.

What all share (assay type): biochemical
The test system of assay [1] is human plasma. Briefly: Human plasma anticoagulation, prothrombin time (PT). Conditions: concentration required to double PT, linear extrapolation. How it is done: (§1) Dog plasma and rat plasma is obtained from conscious mixed-breed hounds (either sex, Hazelton-LRE, Kalamazoo, Mich., U.S.A.) or from anesthetized male Sprague-Dawley rats (Harlan Sprague-Dawley, Inc., Indianapolis, Ind., U.S.A.) by venipuncture into 3.8 percent citrate. Fibrinogen is prepared from in-date ACD human blood as the fraction I-2 according to previous procedures and specifications. […] Human fibrinogen is also purchased as 98 percent pure/plasmin free from American Diagnostica, Greenwich, Conn. Coagulation reagents ACTIN, Thromboplastin, and Human plasma are from Baxter Healthcare Corp., Dade Division, Miami, Fla. Bovine thrombin from Parke-Davis ([…], Mich.) is used for coagulation assays in plasma.
(§2) Coagulation assay procedures are as previously described. […] A CoAScreener coagulation instrument (American LABor, Inc.) is used for all coagulation assay measurements. The prothrombin time (PT) is measured by adding 0.05 mL saline and 0.05 mL Thromboplastin-C reagent to 0.05 mL test plasma. The activated partial thromboplastin time (APTT) is measured by incubation of 0.05 mL test plasma with 0.05 mL Actin reagent for 120 seconds followed by 0.05 mL CaCl2 (0.02M). The thrombin time (TT) is measured by adding 0.05 mL saline and 0.05 mL thrombin (10 NIH units/mL) to 0.05 mL test plasma. The compounds of Formula I are added to human or animal plasma over a wide range of concentrations to determine prolongation effects on the APTT, PT, and TT assays. Linear extrapolations are performed to estimate the concentrations required to double the clotting time for each assay.

Assay [2] relates to human plasma. Briefly: Human plasma anticoagulation, activated partial thromboplastin time (APTT). As to conditions: concentration required to double APTT, linear extrapolation. How it is done: as §1, §2
Assay [3] relates to human plasma. Briefly: Human plasma anticoagulation, thrombin time (TT). Conditions: concentration required to double thrombin time, linear extrapolation. The method, then:
as §1, §2

For `N=C(N)c1ccc(CNC(=O)[C@@H]2C[C@@H]3CCCC[C@@H]3N2C(=O)[C@H]2CCCCN2)cc1` (relative stereo) [Example 20, (S-cis)-N-[[4-(aminoiminomethyl)phenyl]methyl]-octahydro-1-D-homoprolyl-1H-indole-2-carboxamide trihydrochloride], in the assay with human plasma [1], the “Human Plasma Anticoagulation 2x Clotting time PT” value was 600 ng/mL. In the case of `N=C(N)c1ccc(CNC(=O)[C@@H]2C[C@@H]3CCCC[C@@H]3N2C(=O)[C@H]2C[C@H]3CCCC[C@H]3CN2)cc1` (relative stereo) [Example 43, D-3-Piq-cis-Ohi-p-NHCH2 C6 H4 C(NH)NH2.2HCl], in the assay on human plasma [2], the “Human Plasma Anticoagulation 2x Clotting time APTT” value is given as 1,100 ng/mL. Besides, in the assay on human plasma [1], the “Human Plasma Anticoagulation 2x Clotting time PT” value is on record as 930 ng/mL. The “Human Plasma Anticoagulation 2x Clotting time TT” value in the assay on human plasma [3] was 280 ng/mL. For `CCS(=O)(=O)N[C@H](Cc1ccccc1)C(=O)N1CCC[C@H]1C(=O)NCCCCN=C(N)N.Cl` [Example 1, EtSO2 -D-Phe-Pro-Agm.Hcl], the “Human Plasma Anticoagulation 2x Clotting time TT” value in the assay on human plasma [3] is 250 ng/mL. In the case of `N=C(N)NCCCCCCNC(=O)[C@@H]1CCCN1C(=O)[C@H](N)Cc1ccccc1` [Example 5, D-Phe-Pro-NH(CH2)6 NHC(NH)NH2.HCl], the “Human Plasma Anticoagulation 2x Clotting time TT” value with human plasma [3] is 30,000 ng/mL. The same measure, in the same setting: the result for `N=C(N)NCCCCCNC(=O)[C@@H]1CCCN1C(=O)[C@H](N)Cc1ccccc1` [Example 6, D-Phe-Pro-NH(CH2)5 NHC(NH)NH2.HCl] reads 390 ng/mL. Same read-out and setting: with `N=C(N)NCCCNC(=O)[C@@H]1CCCN1C(=O)[C@H](N)Cc1ccccc1` [Example 7, D-Phe-Pro-NH(CH2)3 NHC(NH)NH2.HCl] the figure was 490 ng/mL. On to `N=C(N)NCc1ccc(CNC(=O)[C@@H]2CCCN2C(=O)[C@H](N)Cc2ccccc2)cc1` [Example 9, D-Phe-Pro-p-NHCH2 C6 H4 CH2 NHC(NH)NH2.2TFA], for which the “Human Plasma Anticoagulation 2x Clotting time TT” value in the assay with human plasma [3] is given as > 91,000 ng/mL. Still for that read-out and setting: the result for `NCc1ccc(CNC(=O)[C@@H]2CCCN2C(=O)[C@H](N)Cc2ccccc2)cc1` [Example 10, D-Phe-Pro-p-NHCH2 C6 H4 CH2 NH2.HCl] reads 420 ng/mL. On the same count and under the same terms, with `Nc1ccc(CNC(=O)[C@@H]2CCCN2C(=O)[C@H](N)Cc2ccccc2)cc1` [Example 13, D-Phe-Pro-p-NHCH2 C6 H4 NH2.HCl] the figure was 660 ng/mL. Turning to `CCS(=O)(=O)N[C@H](Cc1ccccc1)C(=O)N1CCC[C@H]1C(=O)NCc1cccc(C(=N)N)c1` [Example 24, EtSO2 -D-Phe-Pro-m-NHCH2 -C6 H4 C(=NH)NH2.HCl], the “Human Plasma Anticoagulation 2x Clotting time PT” value in the assay with human plasma [1] is on record as 25,000 ng/mL. The “Human Plasma Anticoagulation 2x Clotting time TT” value in the assay on human plasma [3] was 1,000 ng/mL. Consider `CCS(=O)(=O)N[C@H](Cc1ccccc1)C(=O)N1CCC[C@H]1C(=O)NCCCc1ccc(C(=N)N)cc1` [Example 30, EtSO2 -D-Phe-Pro-p-NHCH2 CH2 CH2 -C6 H4 C(=NH)NH2.HCl], for which the “Human Plasma Anticoagulation 2x Clotting time APTT” value in the assay with human plasma [2] is reported as 14,000 ng/mL. Also, the “Human Plasma Anticoagulation 2x Clotting time TT” value in the assay on human plasma [3] was 1,000 ng/mL. As to `CCS(=O)(=O)N[C@H](Cc1ccccc1)C(=O)N1CCC[C@H]1C(=O)NCCCc1cccc(C(=N)N)c1` [Example 31, EtSO2 -D-Phe-Pro-m-NHCH2 CH2 CH2 -C6 H4 C(=NH)NH2.HCl], the “Human Plasma Anticoagulation 2x Clotting time PT” value in the assay with human plasma [1] is 30,000 ng/mL. As for `CCS(=O)(=O)N[C@H](Cc1ccccc1)C(=O)N1CCC[C@H]1C(=O)NCc1ccc(NC(=N)N)cc1` [Example 34, EtSO2 -D-Phe-Pro-p-NHCH2 C6 H4 NHC(NH)NH2.HCl], in the assay on human plasma [2], the “Human Plasma Anticoagulation 2x Clotting time APTT” value was 4,900 ng/mL. In addition, the “Human Plasma Anticoagulation 2x Clotting time PT” value with human plasma [1] is 5,500 ng/mL. Further, the “Human Plasma Anticoagulation 2x Clotting time TT” value with human plasma [3] is 530 ng/mL. For `N=C(N)Nc1ccc(CNC(=O)[C@@H]2CCCN2C(=O)[C@@H]2NCC[C@@H]3CCCC[C@@H]32)cc1` [Example 38, D-1-piq-pro-p-NHCH2 C6 H4 NHC(NH)NH2.2HCl], in the assay on human plasma [2], the “Human Plasma Anticoagulation 2x Clotting time APTT” value is on record as 6,100 ng/mL. The “Human Plasma Anticoagulation 2x Clotting time TT” value in the assay on human plasma [3] is 540 ng/mL. With `N=C(N)Nc1ccc(CCNC(=O)[C@@H]2CCCN2C(=O)[C@@H]2NCC[C@@H]3CCCC[C@@H]32)cc1` [Example 39, D-1-piq-Pro-p-NHCH2 CH2 C6 H4 NHC(NH)NH2.2HCl], the “Human Plasma Anticoagulation 2x Clotting time TT” value in the assay on human plasma [3] was 5,300 ng/mL. As to `N=C(N)Nc1cccc(CNC(=O)[C@@H]2CCCN2C(=O)[C@@H]2NCC[C@@H]3CCCC[C@@H]32)c1` [Example 40, D-1-Piq-Pro-m-NHCH2 C6 H4 NHC(NH)NH2.2HCl], in the assay on human plasma [2], the “Human Plasma Anticoagulation 2x Clotting time APTT” value is > 91,000 ng/mL. In addition, the “Human Plasma Anticoagulation 2x Clotting time PT” value with human plasma [1] is recorded as > 91,000 ng/mL. On to `N=C(N)Nc1cccc(CCNC(=O)[C@@H]2CCCN2C(=O)[C@@H]2NCC[C@@H]3CCCC[C@@H]32)c1` [Example 41, D-1-Piq-Pro-m-NHCH2 CH2 C6 H4 NHC(NH)NH2.2HCl], for which the “Human Plasma Anticoagulation 2x Clotting time APTT” value with human plasma [2] is on record as > 91,000 ng/mL. The “Human Plasma Anticoagulation 2x Clotting time PT” value in the assay with human plasma [1] is given as > 91,000 ng/mL.

Turning to `O=C(O)CN[C@H](CC1CCCCC1)C(=O)N1CCC[C@H]1C(=O)NCC1CCNCC1` [Example 53, HO2 CCH2 -D-Cha-Pro-4-NHCH2 -piperidine.HCl], the “Human Plasma Anticoagulation 2x Clotting time TT” value in the assay with human plasma [3] is recorded as 1,400 ng/mL. As to `O=C(O)CN[C@H](CC1CCCCC1)C(=O)N1CCC[C@H]1C(=O)NCCCC1CCNCC1` [Example 55, HO2 CCH2 -D-Cha-Pro-4-NHCH2 CH2 CH2 -piperidine.HCl], the “Human Plasma Anticoagulation 2x Clotting time APTT” value in the assay on human plasma [2] was > 91,000 ng/mL. Also, the “Human Plasma Anticoagulation 2x Clotting time PT” value with human plasma [1] is > 91,000 ng/mL.

As to `N=C(N)NCCCCNC(=O)[C@@H]1CCCN1C(=O)[C@@H]1NCC[C@H]2CCCC[C@H]21` [Example 61, N-[4-[(aminoiminomethyl)amino]butyl]-1-[[(4aR,8aR)-decahydro-1(R)-isoquinolinyl]carbonyl]-1-prolinamide trihydrochloride], the “Human Plasma Anticoagulation 2x Clotting time TT” value in the assay on human plasma [3] was 45 ng/mL.

Consider `Nc1ccc(CNC(=O)[C@@H]2CCCN2C(=O)[C@@H](CC2CCCCC2)NCC(=O)O)cc1` [Example 62, HO2 CCH2 -D-Cha-Pro-4-NHCH2 C6 H4 NH2.HCl], for which the “Human Plasma Anticoagulation 2x Clotting time TT” value with human plasma [3] is reported as 54 ng/mL. Still for that read-out and setting: with `Nc1ccc(CCNC(=O)[C@@H]2CCCN2C(=O)[C@@H](CC2CCCCC2)NCC(=O)O)cc1` [Example 63, HO2 CCH2 -D-Cha-Pro-4-NHCH2 CH2 C6 H4 NH2.HCl] the figure was 680 ng/mL. In the case of `N=C(N)c1ccc(CNC(=O)[C@@H]2CCCN2C(=O)[C@@H](CC2CCCCC2)NCC(=O)O)s1` [Example 65, N-(carboxymethyl)-D-cyclohexylalanyl-N-[[5-(aminoiminomethyl)thiophen-2-yl]methyl]-L-prolinamide hydrochloride], in the assay on human plasma [2], the “Human Plasma Anticoagulation 2x Clotting time APTT” value was 48 ng/mL. For the same compound, in the assay on human plasma [3], the “Human Plasma Anticoagulation 2x Clotting time TT” value is 1 ng/mL. Take `N=C(N)c1ccc(CNC(=O)[C@@H]2CCCN2C(=O)[C@@H](CC2CCCCC2)NCCCC(=O)O)cc1` [Example 85, N-(3-carboxypropyl)-D-cyclohexylalanyl-N-[[4-(aminoiminomethyl)phenyl]methyl]-L-prolinamide hydrochloride]: in the assay on human plasma [2], the “Human Plasma Anticoagulation 2x Clotting time APTT” value is 100 ng/mL. Also, the “Human Plasma Anticoagulation 2x Clotting time TT” value in the assay with human plasma [3] is reported as 4.9 ng/mL.

In the case of `CCC(CC)C(=O)N[C@@H](CCC(=O)O)C(=O)N1CCC[C@H]1C(=O)NCc1ccc(C(=N)N)cc1` [Example 90, (C2 H5)2 CHCO-Glu-Pro-p-NHCH2 C6 H4 C(NH)NH2.HCl], in the assay with human plasma [3], the “Human Plasma Anticoagulation 2x Clotting time TT” value was 330 ng/mL.

The values above are taken from US5710130A, “Antithrombotic agents” (Eli Lilly and Company, priority 1995, dated 1998).
